Results on 39 compounds are retold here after US8114880B2, “Piperidine or piperazine substituted tetrahydro-naphthalene-1-carboxylic acid MTP inhibiting compounds” (Janssen Pharmaceutica N.V., priority 2006, dated 2012).

The IC50 is the concentration needed to halve the response being measured. The low end stands for inhibition by little substance, the high end for a need for much substance.

For one experiment, the target named is MTP (Homo sapiens, UniProt P55157). Description: MTP assay (triglyceride transfer from donor to acceptor vesicles). Format: biochemical. Conditions: MTP activity, percent triglyceride transfer from donor to acceptor vesicles, 37° C. The method, boiled down:
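Radiolabelled triglyceride transfer from donor vesicles (phosphatidylcholine, 7.5 mol % cardiolipin, 0.25 mol % glycerol tri[1-^14C]-oleate) to phosphatidylcholine acceptor vesicles with BSA, pH 7.5 Tris buffer; compounds in DMSO (0.13% final), 5 min preincubation at 37° C before MTP addition. Donor vesicles removed on DEAE-52; acceptor-supernatant ^14C counts give percent transfer.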

The next experiment relates to HepG2 cells. Description: Quantification of the secretion of ApoB. In kind it is cell-based. The settings on record: Homo sapiens, HepG2, 24 h, 24 hours of incubation, pIC50 = -log IC50. As to the method: HepG2 cells were cultured in 24-well plates in MEM Rega 3 containing 10% fetal calf serum. At 70% confluency, the medium was changed and the test compound or carrier (DMSO, 0.4% final concentration) was added. After 24 hours of incubation, the medium was transferred to Eppendorf tubes and cleared by centrifugation. A sheep antibody directed against either apoB was added to the supernatant and the mixture was kept at 8° C. for 24 hours. Then, rabbit anti-sheep antibody was added and the immune complex was allowed to precipitate for 24 hours at 8° C. The immunoprecipitate was pelleted by centrifugation for 25 minutes at 1320 g and washed twice with a buffer containing 40 mM Mops, 40 mM NaH2PO4, 100 mM NaF, 0.2 mM DTT, 5 mM EDTA, 5 mM EGTA, 1% Triton-X-100, 0.5% sodium deoxycholate (DOC), 0.1% SDS, 0.2 μM leupeptin and 0.2 μM PMSF. Radioactivity in the pellet was quantified by liquid scintillation counting. The IC50 values are usually converted to pIC50 values (=−log IC50 value) for ease of use.

Chain of MTP (P55157 19-894, species assumed): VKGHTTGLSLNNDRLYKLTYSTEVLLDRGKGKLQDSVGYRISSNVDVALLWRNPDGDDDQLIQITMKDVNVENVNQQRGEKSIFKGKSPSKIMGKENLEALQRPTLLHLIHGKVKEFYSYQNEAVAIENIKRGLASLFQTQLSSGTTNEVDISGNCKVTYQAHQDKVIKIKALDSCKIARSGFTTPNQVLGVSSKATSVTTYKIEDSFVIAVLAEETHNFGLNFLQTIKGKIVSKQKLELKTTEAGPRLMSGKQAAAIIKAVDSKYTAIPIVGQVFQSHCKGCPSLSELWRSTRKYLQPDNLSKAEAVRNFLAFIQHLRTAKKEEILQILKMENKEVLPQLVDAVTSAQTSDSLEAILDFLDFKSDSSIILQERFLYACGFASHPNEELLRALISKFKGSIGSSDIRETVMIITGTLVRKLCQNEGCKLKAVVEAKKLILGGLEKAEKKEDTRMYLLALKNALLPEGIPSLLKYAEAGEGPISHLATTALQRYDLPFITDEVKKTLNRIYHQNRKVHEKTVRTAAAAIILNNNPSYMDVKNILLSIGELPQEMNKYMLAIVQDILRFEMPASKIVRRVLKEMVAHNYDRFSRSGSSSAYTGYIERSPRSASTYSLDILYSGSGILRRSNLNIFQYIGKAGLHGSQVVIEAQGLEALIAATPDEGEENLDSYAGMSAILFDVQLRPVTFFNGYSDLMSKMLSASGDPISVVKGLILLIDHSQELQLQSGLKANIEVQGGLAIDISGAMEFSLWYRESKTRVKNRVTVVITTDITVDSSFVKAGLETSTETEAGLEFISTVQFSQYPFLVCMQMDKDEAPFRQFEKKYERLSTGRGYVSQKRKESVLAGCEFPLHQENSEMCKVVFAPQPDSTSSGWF
Chain of MTP (P07237 18-508 partner, species assumed): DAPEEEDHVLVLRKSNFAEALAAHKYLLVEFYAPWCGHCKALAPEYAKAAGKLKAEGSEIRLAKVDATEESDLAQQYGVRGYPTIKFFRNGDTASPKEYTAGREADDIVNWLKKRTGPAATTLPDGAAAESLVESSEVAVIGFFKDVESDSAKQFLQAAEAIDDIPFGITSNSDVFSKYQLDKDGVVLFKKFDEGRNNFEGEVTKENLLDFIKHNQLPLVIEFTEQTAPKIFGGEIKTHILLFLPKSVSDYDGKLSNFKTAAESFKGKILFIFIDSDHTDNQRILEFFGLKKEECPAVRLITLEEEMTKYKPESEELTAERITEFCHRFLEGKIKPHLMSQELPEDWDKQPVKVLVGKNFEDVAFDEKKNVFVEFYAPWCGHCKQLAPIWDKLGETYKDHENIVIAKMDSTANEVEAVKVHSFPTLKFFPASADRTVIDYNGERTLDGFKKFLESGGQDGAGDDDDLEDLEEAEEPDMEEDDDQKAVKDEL

As to `CCOC(=O)[C@@]1(c2ccccc2)CC[C@H](C(=O)N2CCC(NC(=O)c3cccnc3OC)CC2)c2ccccc21` [Co. No. 253], the concentration for half-maximal inhibition (IC50) on MTP is 0.984 nM; in the experiment on HepG2 cells it was 3.24 nM.

As for `COC(=O)CCNC(=O)[C@@]1(c2ccccc2)CC[C@H](C(=O)N2CCC(NC(=O)c3ccccc3OC)CC2)c2ccccc21` [Co. No. 65], the IC50 at MTP is 2.86 nM; in the experiment with HepG2 cells, 7.98 nM.

On to `CCCNC(=O)C1(c2ccccc2)CCC(C(=O)N2CCC(NC(=O)c3ccccc3)CC2)c2ccccc21` (stereo not drawn) [Co. No. 4], for which the IC50 was 42.4 nM on MTP and 228 nM with HepG2 cells.

As to `COC(=O)CCCCNC(=O)[C@@]1(c2ccccc2)CC[C@H](C(=O)N2CCC(NC(=O)c3ccccc3OC)CC2)c2ccccc21` [Co. No. 204], the IC50 against MTP is 58.7 nM; in the experiment with HepG2 cells it was > 1000 nM.

Consider `CCOC(=O)[C@]1(c2ccccc2)CC[C@@H](C(=O)N2CCC(NC(=O)c3ccccc3OC)CC2)c2ccccc21` (racemic) [Co. No. 26], for which the values for the IC50 at MTP and with HepG2 cells were 1.92 nM and 6.37 nM, respectively.

With `COc1ccccc1C(=O)NC1CCN(C(=O)[C@H]2CC[C@@](C(=O)N[C@@H](Cc3ccccc3)C(=O)OC(C)(C)C)(c3ccccc3)c3ccccc32)CC1` [Co. No. 112], the IC50 is 18 nM on MTP and 136 nM in the experiment with HepG2 cells.

With `COc1ncccc1C(=O)NC1CCN(C(=O)[C@H]2CC[C@@](C(=O)NCCC(=O)O)(c3ccccc3)c3ccccc32)CC1` [Co. No. 258], the IC50 on MTP was 1800 nM; with HepG2 cells, > 1000 nM.

`CC(C)OC(=O)NCCCC[C@H](NC(=O)[C@@]1(c2ccccc2)CC[C@H](C(=O)N2CCC(NC(=O)c3cccn(C)c3=O)CC2)c2ccccc21)C(=O)OC(C)C` [Co. No. 235]: the IC50 at MTP was 109 nM; with HepG2 cells it was > 1000 nM.

As for `COc1ccccc1C(=O)NC1CCN(C(=O)[C@@H]2CC[C@](C(N)=O)(c3ccccc3)c3ccccc32)CC1` (single isomer, unassigned) [Co. No. 43], the IC50 is 90.4 nM at MTP and 267 nM in the experiment on HepG2 cells.

For the compound `COC(=O)CCNC(=O)[C@]1(c2ccccc2)CC[C@@H](C(=O)N2CCC(NC(=O)c3ccccc3N3CCOCC3)CC2)c2ccccc21` [Co. No. 263], the IC50 against MTP is 15.7 nM; with HepG2 cells it was 64.4 nM.

As for `COc1ccccc1C(=O)NC1CCN(C(=O)[C@H]2CC[C@@](C(=O)N[C@@H](CCCCNC(=O)OC(C)C)C(=O)OC(C)C)(c3ccccc3)c3ccccc32)CC1` [Co. No. 213], the IC50 is 3.1 nM at MTP and 5.9 nM with HepG2 cells.

In the case of `Cn1cccc(C(=O)NC2CCN(C(=O)[C@H]3CC[C@@](C(=O)N[C@@H](CCCCNC(=O)OC(C)(C)C)C(=O)OC(C)(C)C)(c4ccccc4)c4ccccc43)CC2)c1=O` [Co. No. 172], the 50% inhibitory concentration (IC50) was 33.6 nM on MTP and > 1000 nM in the experiment with HepG2 cells.

On to `CCOC(=O)C1CCCN(C(=O)[C@@]2(c3ccccc3)CC[C@H](C(=O)N3CCC(NC(=O)c4ccccc4OC)CC3)c3ccccc32)C1` (stereo partly drawn) [Co. No. 84], for which the figures for the IC50 on MTP and in the experiment on HepG2 cells were 228 nM and > 1000 nM, respectively.

For `CCOC(=O)[C@@H](NC(=O)[C@@]1(c2ccccc2)CC[C@H](C(=O)N2CCC(NC(=O)c3ccccc3OC)CC2)c2ccccc21)C(C)C` [Co. No. 68], the results for the IC50 against MTP and in the experiment with HepG2 cells were 17.9 nM and > 1000 nM, respectively.

With `COC(=O)[C@]1(c2ccccc2)CC[C@@H](C(=O)N2CCC(NC(=O)c3cc(OC)ccc3OC)CC2)c2ccccc21` [Co. No. 50], the figures for the IC50 at MTP and in the experiment on HepG2 cells were 11.6 nM and 16.1 nM, respectively.

Regarding `CC(C)OC(=O)CCNC(=O)[C@@]1(c2ccccc2)CC[C@H](C(=O)N2CCC(NC(=O)c3ccccc3N3CCN(C)CC3)CC2)c2ccccc21` [Co. No. 276], the IC50 on MTP was 3.49 nM; in the experiment with HepG2 cells, 75.2 nM.

In the case of `COC(=O)[C@]1(c2ccccc2)CC[C@@H](C(=O)N2CCC(NC(=O)c3cc(OC)ccc3OCC(F)(F)F)CC2)c2ccccc21` [Co. No. 53], the values for the IC50 at MTP and in the experiment with HepG2 cells were 9.64 nM and 61.8 nM, respectively.

Turning to `COc1ccccc1C(=O)NC1CCN(C(=O)[C@H]2CC[C@@](C(=O)N[C@@H](CC(=O)OC(C)(C)C)C(=O)OC(C)(C)C)(c3ccccc3)c3ccccc32)CC1` [Co. No. 106], the figures for the IC50 against MTP and with HepG2 cells were 16.1 nM and 185 nM, respectively.

For the compound `COc1ccccc1C(=O)NC1CCN(C(=O)[C@H]2CC[C@@](C(=O)N[C@@H](CC(C)C)C(=O)OC(C)(C)C)(c3ccccc3)c3ccccc32)CC1` [Co. No. 104], the IC50 at MTP is 21.6 nM; in the experiment with HepG2 cells, 171 nM.

As for `CCNC(=O)[C@]1(c2ccccc2)CC[C@@H](CN2CCC(NC(=O)c3ccccc3-c3ccc(C(F)(F)F)cc3)CC2)c2ccccc21` [Co. No. 16], the half-maximal inhibitory concentration (IC50) against MTP was 3.2 nM; in the experiment on HepG2 cells, 15 nM.

As to `CCOC(=O)[C@H](Cc1ccccc1)NC(=O)[C@@]1(c2ccccc2)CC[C@H](C(=O)N2CCC(NC(=O)c3ccccc3OC)CC2)c2ccccc21` [Co. No. 81], the figures for the IC50 against MTP and in the experiment on HepG2 cells were 12.6 nM and > 1000 nM, respectively.

As for `COC(=O)[C@]1(c2ccccc2)CC[C@@H](C(=O)N2CCC(NC(=O)c3cc(OC)nnc3OC)CC2)c2ccccc21` [Co. No. 59], the IC50 was > 100 nM against MTP and 225 nM in the experiment with HepG2 cells.

`COc1ccccc1C(=O)NC1CCN(C(=O)[C@H]2CC[C@@](C(=O)N[C@@H](CC(=O)O)C(=O)O)(c3ccccc3)c3ccccc32)CC1` [Co. No. 121]: the IC50 against MTP is > 10000 nM; in the experiment with HepG2 cells, > 1000 nM.

As to `COC(=O)[C@]1(c2ccccc2)CC[C@@H](C(=O)N2CCC(NC(=O)c3c(O)cccc3OC)CC2)c2ccccc21` [Co. No. 55], the results for the IC50 at MTP and in the experiment with HepG2 cells were 60.7 nM and > 1000 nM, respectively.

`COc1ccccc1C(=O)NC1CCN(C(=O)[C@H]2CC[C@@](C(=O)NCCC(=O)OC(C)C)(c3ccccc3)c3ccccc32)CC1` [Co. No. 199]: the IC50 on MTP is 1.32 nM; in the experiment on HepG2 cells it was 7.36 nM.

On to `COC(=O)[C@]1(c2ccccc2)CC[C@@H](C(=O)N2CCC(NC(=O)c3cc(O)ccc3OC)CC2)c2ccccc21` [Co. No. 61], for which the IC50 against MTP was > 10000 nM; with HepG2 cells, 286 nM.

As to `COC(=O)CCNC(=O)[C@]1(c2ccccc2)CC[C@@H](C(=O)N2CCC(NC(=O)c3cccnc3OC)CC2)c2ccccc21` [Co. No. 262], the IC50 against MTP and in the experiment with HepG2 cells was > 1000 nM each time.

On to `CCOC(=O)[C@H](C)NC(=O)[C@@]1(c2ccccc2)CC[C@H](C(=O)N2CCC(NC(=O)c3ccccc3OC)CC2)c2ccccc21` [Co. No. 66], for which the half-inhibitory concentration (IC50) against MTP is 20.2 nM; in the experiment with HepG2 cells it was > 1000 nM.

In the case of `CCOC(=O)[C@H](NC(=O)[C@@]1(c2ccccc2)CC[C@H](C(=O)N2CCC(NC(=O)c3ccccc3OC)CC2)c2ccccc21)c1ccccc1` [Co. No. 79], the IC50 at MTP is 33.3 nM; in the experiment on HepG2 cells, 128 nM.

Take `COc1ccccc1C(=O)NC1CCN(C(=O)[C@H]2CC[C@@](C(=O)N[C@@H](CCC(=O)OC(C)C)C(=O)OC(C)C)(c3ccccc3)c3ccccc32)CC1` [Co. No. 248]: the figures for the IC50 against MTP and in the experiment with HepG2 cells were 6.61 nM and 184 nM, respectively.

Take `COc1ccccc1C(=O)NC1CCN(C(=O)[C@H]2CC[C@@](C(=O)N[C@H](CCCCNC(=O)OC(C)C)C(=O)OC(C)C)(c3ccccc3)c3ccccc32)CC1` [Co. No. 221]: the IC50 is 1.78 nM against MTP and 135 nM in the experiment with HepG2 cells.

`C=CCOC(=O)[C@@]1(c2ccccc2)CC[C@H](C(=O)N2CCC(NC(=O)c3cccnc3OC)CC2)c2ccccc21` [Co. No. 266]: the IC50 was 0.966 nM against MTP and 2.04 nM in the experiment with HepG2 cells.

Take `CCOC(=O)CNC(=O)[C@]1(c2ccccc2)CC[C@@H](C(=O)N2CCC(NC(=O)c3ccccc3OC)CC2)c2ccccc21` [Co. No. 48]: the IC50 on MTP was 13.3 nM; with HepG2 cells, 9770 nM.

For the compound `CCOC(=O)NCCCC[C@@H](NC(=O)[C@@]1(c2ccccc2)CC[C@H](C(=O)N2CCC(NC(=O)c3ccccc3OC)CC2)c2ccccc21)C(=O)OCC` [Co. No. 217], the IC50 at MTP is 8.22 nM; in the experiment on HepG2 cells, 256 nM.

For the compound `Cn1cccc(C(=O)NC2CCN(C(=O)[C@H]3CC[C@@](C(=O)NCCCC(=O)OC(C)(C)C)(c4ccccc4)c4ccccc43)CC2)c1=O` [Co. No. 226], the IC50 is 111 nM against MTP and > 1000 nM in the experiment with HepG2 cells.

On to `CCOC(=O)[C@@H](Cc1ccccc1)NC(=O)[C@@]1(c2ccccc2)CC[C@H](C(=O)N2CCC(NC(=O)c3ccccc3OC)CC2)c2ccccc21` [Co. No. 82], for which the values for the IC50 on MTP and with HepG2 cells were 12.9 nM and 289 nM, respectively.

With `COc1ccccc1C(=O)NC1CCN(C(=O)[C@H]2CC[C@@](C(=O)N[C@H](C(=O)OC(C)(C)C)C(C)C)(c3ccccc3)c3ccccc32)CC1` [Co. No. 102], the IC50 was 13.6 nM at MTP and 168 nM in the experiment with HepG2 cells.

For the compound `C=CCOC(=O)[C@]1(c2ccccc2)CC[C@@H](C(=O)N2CCC(NC(=O)c3ccccc3-c3ccc(C(F)(F)F)cc3)CC2)c2ccccc21` [Co. No. 19], the half-maximal inhibitory concentration (IC50) against MTP was 4.63 nM; with HepG2 cells it was 7.57 nM.

On to `CCOC(=O)NCCCC[C@H](NC(=O)[C@@]1(c2ccccc2)CC[C@H](C(=O)N2CCC(NC(=O)c3cccn(C)c3=O)CC2)c2ccccc21)C(=O)OC(C)C` [Co. No. 233], for which the IC50 was 117 nM against MTP and > 1000 nM in the experiment with HepG2 cells.
